Marks after values point to notes of the source that are not given here.
Columns and labels:
Crl:CoBs CD(SD) rats = experiment: thirty-day dose range finding study of Compound A in rats; conditions: for BR - BRAIN W/STEM organ to terminal body weight ratio mean / HT - HEART organ to terminal body weight ratio mean / KD - KIDNEY organ to terminal body weight ratio mean / LI - LIVER organ to terminal body weight ratio mean / SP - SPLEEN organ to terminal body weight ratio mean / dilated pelves of kidneys, number of animals / TP - TESTIS/EPIDID organ to terminal body weight ratio mean: 30 days oral
Description: More specifically, 50 male and 50 female Crl:CoBs® CD(SD) selected from 68 male and 68 female rats (4 weeks old) were used as test animals in the study 1. The rats were housed individually in elevated wire mesh cages with food (Purina Certified Rodent Chow® 5002) and tap water (via an automated watering system) available ad libitum. Each batch of feed utilized was analyzed by the manufacturer for concentrations of specified heavy metals, aflatoxin, chlorinated hydrocarbons, organophosphates, and specified nutrients.
An artificial light cycle of 12 hours light and 12 hours dark was maintained.
The rats were selected for use on the study using a computer-generated weight randomization procedure and assigned to the following groups:
Following randomization, the rats were identified with an ear tag bearing a unique permanent identification number. The rats were randomly assigned to treatment groups by first eliminating the ones with extreme body weights (±2 standard deviations from the mean body weight).
The desired amount of carboxymethyl cellulose was weighed on an appropriate (milligram) balance, transferred to a precalibrated beaker containing two-thirds of the total value of distilled water, and stirred on a magnetic stirrer until a solution formed. Distilled water was then added to final volume and stirred to achieve a 0.5% w/v solution.
Compound A was first ground into a powder. The desired amount for each dose level as weighed on an appropriate (milligram) balance and transferred into a precalibrated beaker. A small amount (0.5 to 4ml) of 0.5% carboxymethyl cellulose was added to Compound A and mixed to form a paste. […] Fresh suspensions of Compound A were prepared daily and fresh solutions of 0.5% carboxymethyl cellulose were prepared weekly and stored refrigerated.
Each rat received Compound A at a dosage factor of 10 milliliters per kilogram of body weight via gavage between 9 a.m. and noon each day. The dosing volume for each rat was calculated and adjusted weekly by the computer from the most recently recorded individual body weight.
Compound A was administered orally.
All rats were observed twice daily for mortality and moribundity. Clinical observations were made prior to dosing and at 1 and 4 hours after dosing. All signs were recorded as they were observed. Individual body weights were recorded at initiation of treatment, at weekly intervals, and at termination while food consumption was recorded weekly.
Following 30 or 31 days of treatment, surviving rats were weighed, anesthetized, and exsanguinated under sodium pentobarbital anesthesia. Complete necropsies were performed on each rat by appropriately trained personnel using procedures approved by board-certified pathologists. Necropsy included examination of the following:
Various organs were weighted and compared to the control, e.g., brain with stem, heart, spleen, kidney, liver, sex organs.

[1] = tested on: maximal electroshock (MES) induced seizure; experiment: 5-day chronic treatment tolerance study (MES test); assay type: in vivo; conditions: rats
Description: Compound C, i.e., N-acetyl-D, L-phenylglycine N-benzylamide was subjected to 5-day chronic treatment on anticonvulsant activity (maximal electroshock). 3 groups of 8 animals each were treated as follows. One group was given the MES ED50 of the test drug for 5 days; the second group was given the requisite volume of the vehicle (0.04 ml/10 g body wt.) for 4 days and a single dose (MES ED50) of the test drug on day 5; and the third group was given the requisite volume of the vehicle daily for 5 days. At the time of peak effect of the candidate substance on day 5, all groups were subjected to the MES test and the number of animals protected recorded. Seizure components of the unprotected animals were timed to the nearest 10th of a second and the extensor/flexor (E/F) ratio, S.E., and p value determined. Since extensor duration decreases and flexor duration increases as a maximal seizure is attenuated, the E/F ratio provides a measure of seizure severity.

[2] = motor impairment (ataxia, gait, stance) observation, rats (po); assay type: in vivo; conditions: male, Sprague Dawley, in vivo, rat
Source text: Compounds were screened for anticonvulsant activity in both male albino Carthworth Farms No. 1 mice (ip route) and male albino Sprague Dawley rats [oral (po) route]. Activity was established using the electrical (maximal electroshock or MES) test. In the MES test, a drop of electrolyte solution with anesthetic (0.5% butacaine hemisulfate in 0.9% sodium chloride) was used in the eyes of the animals prior to positioning the corneal electrodes and delivery of current. A 60 cycle alternating current was administered for 0.2 sec. in both species, 50 mA in mice and 150 mA in rats. Protection endpoints were defined as the abolition of the hind limb tonic extensor component of the induced seizure. In mice, effects of compounds on forced spontaneous motor activity were determined using the rotorod test. […] Normally under these conditions, mice maintain their balance almost indefinitely. In rats, motor impairment is assessed by observing for overt evidence of ataxia, abnormal gait and stance, and/or loss of placing response and muscle tone. In the mouse identification screening study all compounds were given at three dose levels (30, 100, 300 mg/kg) and two time periods (0.5 hours, 4 hours). Typically, in the MES seizures test one animal was tested at 30 mg/kg and 300 mg/kg, and three animals at 100 mg/kg. In the rotored toxicity test four animals were tested at 30 mg/kg, and 300 mg/kg, and eight animals at 100 mg/kg.
The quantitative determination of the median effective (ED50) and toxic doses (TD50) was conducted at previously calculated times of peak effect. Groups of at least eight animals were tested using different doses of test compound until at least two points wee determined between 100 and 0% protection and minimal motor impairment. The dose of candidate substance required to produce the defined end-point in 50% of the animals in each test and the 95% confidence interval was calculated.

[3] = female, group 5, 1000 mg/kg/day

In the case of `CC(=O)NC(C)C(=O)NCc1ccccc1` (racemic) [compound 1, N-Acetyl-D,L-alanine-N′-benzylamide], the mean kidney weight (Crl:CoBs CD(SD) rats; Group 5 males (1000 mg/kg/day × 30 days)) is reported as “small increase”, the “BR - BRAIN W/STEM organ to terminal body weight ratio mean” value (shortened to “BR … to terminal body weight ratio mean”) (Crl:CoBs CD(SD) rats; female, group 2, 30 mg/kg/day) is reported as “.887%” and the “HT - HEART organ to terminal body weight ratio mean” value (Crl:CoBs CD(SD) rats; female, group 2, 30 mg/kg/day) is reported as “.372%”. The “KD - KIDNEY organ to terminal body weight ratio mean” value (Crl:CoBs CD(SD) rats; female, group 2, 30 mg/kg/day) was “.773%”, the “LI - LIVER organ to terminal body weight ratio mean” value (Crl:CoBs CD(SD) rats; female, group 2, 30 mg/kg/day) was 3.122% and the “SP - SPLEEN organ to terminal body weight ratio mean” value (Crl:CoBs CD(SD) rats; female, group 2, 30 mg/kg/day) was “.204%”. For the same compound, the “BR … to terminal body weight ratio mean” value (Crl:CoBs CD(SD) rats; female, group 3, 100 mg/kg/day) was “.899%”, the “HT - HEART organ to terminal body weight ratio mean” value (Crl:CoBs CD(SD) rats; female, group 3, 100 mg/kg/day) was “.345%” and the “KD - KIDNEY organ to terminal body weight ratio mean” value (Crl:CoBs CD(SD) rats; female, group 3, 100 mg/kg/day) was “.768%”. The “LI - LIVER organ to terminal body weight ratio mean” value (Crl:CoBs CD(SD) rats; female, group 3, 100 mg/kg/day) was 3.166%, the “SP - SPLEEN organ to terminal body weight ratio mean” value (Crl:CoBs CD(SD) rats; female, group 3, 100 mg/kg/day) was “.200%” and the “BR … to terminal body weight ratio mean” value (Crl:CoBs CD(SD) rats; female, group 4, 300 mg/kg/day) was “.934%”. The “HT - HEART organ to terminal body weight ratio mean” value (Crl:CoBs CD(SD) rats; female, group 4, 300 mg/kg/day) was “.373%”, the “KD - KIDNEY organ to terminal body weight ratio mean” value (Crl:CoBs CD(SD) rats; female, group 4, 300 mg/kg/day) was “.770%” and the “LI - LIVER organ to terminal body weight ratio mean” value (Crl:CoBs CD(SD) rats; female, group 4, 300 mg/kg/day) was 3.172%. For the same compound, the “SP - SPLEEN organ to terminal body weight ratio mean” value (Crl:CoBs CD(SD) rats; female, group 4, 300 mg/kg/day) was “.198%”, the “BR … to terminal body weight ratio mean” value (Crl:CoBs CD(SD) rats; [3]) was “.891%” and the “HT - HEART organ to terminal body weight ratio mean” value (Crl:CoBs CD(SD) rats; [3]) was “.347%”. For the same compound, the “KD - KIDNEY organ to terminal body weight ratio mean” value (Crl:CoBs CD(SD) rats; [3]) was “.763%”, the “LI - LIVER organ to terminal body weight ratio mean” value (Crl:CoBs CD(SD) rats; [3]) was 3.739* % and the “SP - SPLEEN organ to terminal body weight ratio mean” value (Crl:CoBs CD(SD) rats; [3]) was “.189%”. For the same compound, the “dilated pelves of kidneys, number of animals” value (shortened to “dilated pelves of kidneys”) (Crl:CoBs CD(SD) rats; females, Group 5 (1000 mg/kg/day)) was “two”, the “BR … to terminal body weight ratio mean” value (Crl:CoBs CD(SD) rats; male, group 2, 30 mg/kg/day) was “.593%” and the “HT - HEART organ to terminal body weight ratio mean” value (Crl:CoBs CD(SD) rats; male, group 2, 30 mg/kg/day) was “.313%”. The “KD - KIDNEY organ to terminal body weight ratio mean” value (Crl:CoBs CD(SD) rats; male, group 2, 30 mg/kg/day) was “.719%”, the “LI - LIVER organ to terminal body weight ratio mean” value (Crl:CoBs CD(SD) rats; male, group 2, 30 mg/kg/day) was 2.849% and the “SP - SPLEEN organ to terminal body weight ratio mean” value (Crl:CoBs CD(SD) rats; male, group 2, 30 mg/kg/day) was “.172%”. For the same compound, the “TP - TESTIS/EPIDID organ to terminal body weight ratio mean” value (Crl:CoBs CD(SD) rats; male, group 2, 30 mg/kg/day) was 1.265%, the “BR … to terminal body weight ratio mean” value (Crl:CoBs CD(SD) rats; male, group 3, 100 mg/kg/day) was “.599%” and the “HT - HEART organ to terminal body weight ratio mean” value (Crl:CoBs CD(SD) rats; male, group 3, 100 mg/kg/day) was “.314%”. For the same compound, the “KD - KIDNEY organ to terminal body weight ratio mean” value (Crl:CoBs CD(SD) rats; male, group 3, 100 mg/kg/day) was “.694%”, the “LI - LIVER organ to terminal body weight ratio mean” value (Crl:CoBs CD(SD) rats; male, group 3, 100 mg/kg/day) was 3.059* % and the “SP - SPLEEN organ to terminal body weight ratio mean” value (Crl:CoBs CD(SD) rats; male, group 3, 100 mg/kg/day) was “.166%”. For the same compound, the “TP - TESTIS/EPIDID organ to terminal body weight ratio mean” value (Crl:CoBs CD(SD) rats; male, group 3, 100 mg/kg/day) was 1.219%, the “dilated pelves of kidneys” value (Crl:CoBs CD(SD) rats; male, group 3, 100 mg/kg/day) was “one” and the “BR … to terminal body weight ratio mean” value (Crl:CoBs CD(SD) rats; male, group 4, 300 mg/kg/day) was “.581%”. The “HT - HEART organ to terminal body weight ratio mean” value (Crl:CoBs CD(SD) rats; male, group 4, 300 mg/kg/day) was “.328%”, the “KD - KIDNEY organ to terminal body weight ratio mean” value (Crl:CoBs CD(SD) rats; male, group 4, 300 mg/kg/day) was “.695%” and the “LI - LIVER organ to terminal body weight ratio mean” value (Crl:CoBs CD(SD) rats; male, group 4, 300 mg/kg/day) was 3.101* %. For the same compound, the “SP - SPLEEN organ to terminal body weight ratio mean” value (Crl:CoBs CD(SD) rats; male, group 4, 300 mg/kg/day) was “.163%”, the “TP - TESTIS/EPIDID organ to terminal body weight ratio mean” value (Crl:CoBs CD(SD) rats; male, group 4, 300 mg/kg/day) was 1.212% and the “dilated pelves of kidneys” value (Crl:CoBs CD(SD) rats; male, group 4, 300 mg/kg/day) was “one”. The “BR … to terminal body weight ratio mean” value (Crl:CoBs CD(SD) rats; male, group 5, 1000 mg/kg/day) was “.571%”, the “HT - HEART organ to terminal body weight ratio mean” value (Crl:CoBs CD(SD) rats; male, group 5, 1000 mg/kg/day) was “.343%” and the “KD - KIDNEY organ to terminal body weight ratio mean” value (Crl:CoBs CD(SD) rats; male, group 5, 1000 mg/kg/day) was “.770%”. For the same compound, the “LI - LIVER organ to terminal body weight ratio mean” value (Crl:CoBs CD(SD) rats; male, group 5, 1000 mg/kg/day) was 3.683* %, the “SP - SPLEEN organ to terminal body weight ratio mean” value (Crl:CoBs CD(SD) rats; male, group 5, 1000 mg/kg/day) was “.176%” and the “TP - TESTIS/EPIDID organ to terminal body weight ratio mean” value (Crl:CoBs CD(SD) rats; male, group 5, 1000 mg/kg/day) was 1.202%. For the same compound, the mean liver weight (Crl:CoBs CD(SD) rats; males of Groups 4 (300 mg/kg/day × 30 days) and 5 (1000 mg/kg/day × 30 days), Group 5 females) was “increased”, the “dilated pelves of kidneys” value (Crl:CoBs CD(SD) rats; males, Group 5 (1000 mg/kg/day)) was “three” and the “Safety Ratio daily dose; MES” value (Crl:CoBs CD(SD) rats; rat, oral, 100 mg/kg/day × 30 days vs oral MES ED50) was 2.1. The “safety ratio, dose to signs of liver enlargement following 30 days medication relative to oral anti-convulsant dose” value (Crl:CoBs CD(SD) rats; rats, threshold daily dose 100 mg/kg) was 2.1, the “tolerance to the anticonvulsant effects (MES Test)” value ([1]; 5 daily doses of 48 mg/kg) was “does not induce tolerance” and the “animals protected, MES test” value ([1]; chronically treated group, 5 daily doses of 48 mg/kg) was 3/8. For the same compound, the “animals protected, MES test” value ([1]; single dose acute control group, MES ED50 (48 mg/kg)) was 4/8, the ED50 ([2]; oral (Table 6), read-out: RAT ED50 Neurotox) was over 1000 mg/kg and the TD50 ([2]; po, at time of peak effect, read-out: tox, TD50) was over 1000 mg/kg.

From patent USRE38551E1, “Anticonvulsant enantiomeric amino acid derivatives” (priority 1996, dated 2004)
